Results: BindingDB's records for patent US10246444 (Sabila Biosciences, 2019)

Biological target: Epidermal growth factor receptor [T790M,L858R] (Homo sapiens, UniProt P00533, L858R/T790M)
Assay: Kinase assay
Method: The assay is performed by combining three components: DNA-tagged kinase; immobilized ligand; and a test compound. The ability of the test compound to compete with the immobilized ligand is measured via quantitative PCR of the DNA tag.For most assays, kinase-tagged T7 phage strains were prepared in an E. coli host derived from the BL21 strain. E. coli were grown to log-phase and infected with T7 phage and incubated with shaking at 32° C. until lysis. The lysates were centrifuged and filtered to remove cell debris. The remaining kinases were produced in HEK-293 cells and subsequently tagged with DNA for qPCR detection. […] The liganded beads were blocked with excess biotin and washed with blocking buffer (SeaBlock (Pierce), 1% BSA, 0.05% Tween 20, 1 mM DTT) to remove unbound ligand and to reduce nonspecific binding. […] All reactions were performed in polystyrene 96-well plates in a final volume of 0.135 ml. […] The kinase concentration in the eluates was measured by qPCR.

Epidermal growth factor receptor [T790M,L858R], sequence (P00533 25-1210 T790M/L858R limits assumed): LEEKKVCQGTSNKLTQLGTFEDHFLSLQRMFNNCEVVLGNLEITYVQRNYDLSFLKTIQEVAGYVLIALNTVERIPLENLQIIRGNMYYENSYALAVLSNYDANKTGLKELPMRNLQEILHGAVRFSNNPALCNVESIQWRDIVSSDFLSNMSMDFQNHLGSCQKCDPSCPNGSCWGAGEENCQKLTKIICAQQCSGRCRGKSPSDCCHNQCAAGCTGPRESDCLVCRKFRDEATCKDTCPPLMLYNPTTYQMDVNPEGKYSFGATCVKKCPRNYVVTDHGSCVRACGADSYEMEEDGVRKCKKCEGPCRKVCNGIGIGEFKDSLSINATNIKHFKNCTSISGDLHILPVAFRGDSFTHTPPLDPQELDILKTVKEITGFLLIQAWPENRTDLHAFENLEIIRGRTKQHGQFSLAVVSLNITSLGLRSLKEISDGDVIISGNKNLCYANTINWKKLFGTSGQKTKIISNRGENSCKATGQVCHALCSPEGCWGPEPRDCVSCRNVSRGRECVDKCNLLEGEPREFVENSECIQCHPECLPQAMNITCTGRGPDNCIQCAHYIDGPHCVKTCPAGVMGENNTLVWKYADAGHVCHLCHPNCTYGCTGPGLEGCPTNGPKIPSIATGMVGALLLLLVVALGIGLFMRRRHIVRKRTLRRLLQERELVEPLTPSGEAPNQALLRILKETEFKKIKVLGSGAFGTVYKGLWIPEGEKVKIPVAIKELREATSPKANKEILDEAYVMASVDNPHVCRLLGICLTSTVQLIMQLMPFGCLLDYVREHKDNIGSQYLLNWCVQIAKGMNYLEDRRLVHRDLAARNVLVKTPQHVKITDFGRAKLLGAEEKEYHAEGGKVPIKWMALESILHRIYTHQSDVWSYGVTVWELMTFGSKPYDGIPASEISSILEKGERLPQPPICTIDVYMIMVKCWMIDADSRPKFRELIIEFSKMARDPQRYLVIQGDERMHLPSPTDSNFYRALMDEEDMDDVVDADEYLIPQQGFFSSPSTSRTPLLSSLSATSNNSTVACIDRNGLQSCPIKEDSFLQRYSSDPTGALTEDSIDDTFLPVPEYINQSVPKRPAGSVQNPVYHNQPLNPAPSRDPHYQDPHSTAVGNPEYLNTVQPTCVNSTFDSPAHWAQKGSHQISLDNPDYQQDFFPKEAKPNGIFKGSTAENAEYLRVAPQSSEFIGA

Kd: > 10 µM
Compound: CCOc1cc2ncc(C#N)c(Nc3ccc(OCc4cccc(F)c4)c(Cl)c3)c2cc1NC(=O)CC1CCSS1 (stereo unspecified) [US10246444, Example 40]
